# In patent US10053721B2, “Antimicrobial resistance status determination device and method” (bioMerieux, Inc., priority 2015, dated 2018):
# Like-named read-outs stand apart in the source and are kept apart here.
# Legend:
# Type in all cases: cell-based
# S. aureus strains = test: Methicillin-resistant Staphylococcus aureus (MRSA) assay, optical density growth curves; details: 6 μg/mL cefoxitin
# Method: The BacT/ALERT® SA bottles were inoculated as described in Example A. The positive broth dilution for the MRSA Assay was performed as follows: broth containing a S. aureus isolate was diluted 1:20 into glass tubes containing 9.0 mL of pre-warmed CAMBH, 0.05% saponin and ±6 μg/mL cefoxitin. Ten (10) S. aureus strains representing diverse phenotypes were tested (5 resistant and 5 sensitive).
# (§1) Each strain was sub-cultured without the drug as a growth control. The resistance assay tubes (15 mL tubes fitted with septum screw-caps for diluting and sampling) were incubated in a custom-built, heated, rocking optical density unit, placed within a resistance module, and time-dependent changes in the optical at 660 nm of each culture tube were measured every 45 seconds for periods of up to 12 hours. To maximize microbial growth and minimize measurement noise, tubes were rocked between +/−18 degrees from horizontal at 36 cycles/min for 30 seconds, then returned to the upright position for 15 seconds before an optical density reading was taken.
# To detect MRSA directly from positive blood cultures, 10 broth samples containing S. aureus strains representing diverse phenotypes were sub-cultured for up to 12 hours with and without 6 μg/mL of cefoxitin (5 resistant and 5 sensitive strains).
# To better discriminate microbial growth from background increases in media optical density, slopes of the growth curves were calculated and plotted (FIGS. 7B, 7D, and 7F).
# [1] = system: K. pneumoniae or E. coli isolates; test: Carbapenem-resistant Enterobacteriaceae (CRE) assay, optical density at 660 nm over time; details: 4 ug/mL imipenem; 8 strains harboring carbapenemase genes
# Method: BacT/ALERT® SA bottles were inoculated with 10 mL of SPS-anticoagulated normal human blood and seeded with <100 CFU of S. aureus, E. faecalis, E. faecium, E. coli and K. pneumoniae isolates. Within 15 minutes of flagging positive, the bottles were manually unloaded and either tested immediately or kept on ice until tested. If chilled, a positive bottle was warmed in a 36° C. water bath for 15-20 minutes before removing samples. The positive broth dilutions were performed manually. […]
# as §1, with “taken. […]” for “taken.”
# E. faecalis strains = test: Vancomycin-resistant enterococci (VRE) assay, optical density growth curves
# Method: (§2) The BacT/ALERT® SA bottles were inoculated as described in Example A. The positive broth dilution for the […] was performed as follows: broth containing E. faecium or E. faecalis isolates was spun for 10 seconds @10,600 g in a 1.5 mL microcentrifuge tube to sediment red blood cells (RBC). One (1.0) mL of the RBC depleted supernatant was recovered and diluted into 4.0 mL of pre-warmed BacT/ALERT® SA media±6 μg/mL vancomycin. Thirty-one (31) E. faecium and 7 E. faecalis strains were tested (23 resistant and 15 sensitive).
# (§3) To rapidly detect VRE in positive blood cultures, 38 broth samples containing E. faecium and E. faecalis strains were depleted of red blood cells and then diluted 1:5 in BacT/ALERT® SA blood culture media with and without 6 μg/mL of vancomycin (23 resistant and 15 sensitive strains).
# E. faecium strains = test: as above; details: 6 μg/mL vancomycin; all 17 resistant E. faecium strains
# Method: as §2, §3
# [2] = system: van B containing E. faecalis strains; test: MIC of van B containing E. faecalis strains
smiles,measurement,setting,value
CO[C@@]1(NC(=O)Cc2cccs2)C(=O)N2C(C(=O)O)=C(COC(N)=O)CS[C@@H]21 [cefoxitin],time to growth in cefoxitin media,S. aureus strains; 3 of the 5 MRSA strains,≤ 2 h
same,growth in cefoxitin media,"S. aureus strains; 5 sensitive S. aureus strains, by 12 hours",failed to grow
same,slopes of the growth curves,"S. aureus strains; 5 sensitive strains, after 60 min equilibration, over 720 min",decreasing or flat slopes
same,time to growth in cefoxitin media,S. aureus strains; Positive Control MRSA strain ATCC 43300,≤ 2.5 h
same,time to growth in cefoxitin media,S. aureus strains; weakly resistant MRSA strain (E-test MIC=16 ug/mL),≤ 4.5 h
C[C@@H](O)[C@H]1C(=O)N2C(C(=O)O)=C(SCCN=CN)C[C@H]12 [imipenem],time to growth in the presence of imipenem,[1],≤ 2 h
CN[C@H](CC(C)C)C(=O)N[C@H]1C(=O)N[C@@H](CC(N)=O)C(=O)N[C@H]2C(=O)N[C@H]3C(=O)N[C@H](C(=O)N[C@H](C(=O)O)c4cc(O)cc(O)c4-c4cc3ccc4O)[C@H](O)c3ccc(c(Cl)c3)Oc3cc2cc(c3O[C@@H]2O[C@H](CO)[C@@H](O)[C@H](O)[C@H]2O[C@H]2C[C@](C)(N)[C@H](O)[C@H](C)O2)Oc2ccc(cc2Cl)[C@H]1O [vancomycin],time to detection of growth with vancomycin,"E. faecalis strains; 6 μg/mL vancomycin, three low MIC van B containing E. faecalis strains",3 to 4 h
same,time to detection of growth with vancomycin,"E. faecalis strains; delayed van B isolates, starting subculture optical density raised from <0.10 to 0.25-0.45, data not shown",2 to 2.5 h
same,time to detection of growth with vancomycin,E. faecium strains,≤ 2 h
same,MIC,"[2]; CLSI Positive Control strain ATCC 51299, in µg/mL",16-24
same,MIC,"[2]; Enterococcus faecalis, three van B containing E. faecalis strains, read-out: MIC",16 to 64 µg/mL
